Test results as given in the supplement of paper PMC8967900.

What was measured:
Assay in all cases: selective drug sensitivity score (sDSS, relative to normal bone marrow) (sDSS (score)); higher = more potent and effective on the cell line relative to normal bone marrow cells
Details in all cases: 72 h
MOLT-4 = test system: MOLT-4
NALM-16 = test system: NALM-16
RPMI-8402 = test system: RPMI-8402
LC4-1 = test system: LC4-1
COG-LL-355h = test system: COG-LL-355h
RCH-ACV = test system: RCH-ACV
COG-LL-317 = test system: COG-LL-317
MHH-CALL-2 = test system: MHH-CALL-2
ALL-SIL = test system: ALL-SIL
SEM cells = test system: SEM cells
TANOUE = test system: TANOUE
CCRF-CEM = test system: CCRF-CEM
MOLT-14 = test system: MOLT-14
697 = test system: 697
MOLT-16 = test system: MOLT-16
MHH-CALL-3 = test system: MHH-CALL-3
KARPAS-45 = test system: KARPAS-45
KASUMI-9 = test system: KASUMI-9
SUP-B15 = test system: SUP-B15
380 = test system: 380
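Note: ALL cell lines in 384-well plates, five doses spanning 10,000-fold, each plate scaled between vehicle and 100 µmol/L benzalkonium chloride controls, sDSS an adapted area-under-curve metric.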

Row | SMILES | selective drug sensitivity score (MOLT-4) | selective drug sensitivity score (NALM-16) | selective drug sensitivity score (RPMI-8402) | selective drug sensitivity score (LC4-1) | selective drug sensitivity score (COG-LL-355h) | selective drug sensitivity score (RCH-ACV) | selective drug sensitivity score (COG-LL-317) | selective drug sensitivity score (MHH-CALL-2) | selective drug sensitivity score (ALL-SIL) | selective drug sensitivity score (SEM cells) | selective drug sensitivity score (TANOUE) | selective drug sensitivity score (CCRF-CEM) | selective drug sensitivity score (MOLT-14) | selective drug sensitivity score 697 | selective drug sensitivity score (MOLT-16) | selective drug sensitivity score (MHH-CALL-3) | selective drug sensitivity score (KARPAS-45) | selective drug sensitivity score (KASUMI-9) | selective drug sensitivity score (SUP-B15) | selective drug sensitivity score 380
1 | Cc1nc(=O)c2cc(CN(C)c3ccc(C(=O)N[C@@H](CCC(=O)O)C(=O)O)s3)ccc2[nH]1 [Raltitrexed] (top concentration 1000 nM) | 17.3 | 9.12 | 23.4 | 19.3 | 4.82 | 29.2 | 19.5 | 19.6 | 17.3 | 23.9 | -0.58 | 23.3 | 17.7 | 25.8 | 25.3 | 9.92 | 9.52 | 15.2 | 28 | 20.7
2 | Cc1ccc(NS(=O)(=O)c2cccc(C#N)c2)c2[nH]cc(C#N)c12 [E7820] (top concentration 50000 nM) | 1.82 | 1.82 | 17.9 | 11.8 | 6.22 | 23.2 | 21.9 | 19.4 | 20.2 | 19.5 | -6.28 | 9.12 | 21.3 | 21.7 | 22.6 | 7.82 | 20.1 | 12.7 | 8.72 | 30.8
3 | Cc1cc(Nc2nc(N[C@@H](C)c3ncc(F)cn3)ncc2Cl)[nH]n1 [AZD1480] (top concentration 1000 nM) | -3.28 | -4.28 | -3.18 | -4.08 | 0.42 | -2.18 | -2.78 | -1.38 | -0.28 | -1.98 | -4.28 | -3.98 | -4.28 | -3.78 | -4.28 | -1.28 | 0.32 | -0.68 | 0.02 | -0.58
4 | O=C(O)CC[C@H]1CC[C@@](c2cc(F)ccc2F)(S(=O)(=O)c2ccc(Cl)cc2)CC1 [MK-0752] (top concentration 1000 nM) | 0 | 0 | 3.2 | 0 | 0 | 0.3 | 0 | 3.8 | 0 | 0 | 0 | 0 | 0 | 0 | 0 | 0 | 0 | 0 | 0 | 4.6
5 | COc1cc(C(=O)O)ccc1NC(=O)[C@@H]1N[C@@H](CC(C)(C)C)[C@](C#N)(c2ccc(Cl)cc2F)[C@H]1c1cccc(Cl)c1F [Idasanutlin] (top concentration 10000 nM) | 20.7 | -8.74 | -12.5 | 19.1 | 13.7 | 21 | 28.4 | 18.7 | -12.5 | -10 | -12.5 | -9.94 | 15.6 | 16.8 | 21.3 | 21.9 | -8.34 | 23 | 29.3 | 23.5
6 | CC(C)N(CCCNC(=O)Nc1ccc(C(C)(C)C)cc1)C[C@H]1O[C@@H](n2cc(Br)c3c(N)ncnc32)[C@H](O)[C@@H]1O [SGC0946] (top concentration 10000 nM) | 0.08 | -0.62 | 1.78 | -1.02 | 1.88 | -0.82 | -1.12 | 2.18 | -0.92 | -0.72 | -1.12 | 0.88 | -0.02 | -0.02 | 0.78 | -1.12 | 3.98 | 0.28 | -0.62 | -1.12
7 | C=CC(=O)Nc1cccc(Oc2nc(Nc3ccc(N4CCN(C)CC4)cc3)nc3ccsc23)c1 [Olmutinib] (top concentration 1000 nM) | -0.02 | -0.02 | -0.02 | -0.02 | 1.78 | 1.58 | 0.48 | 6.88 | -0.02 | -0.02 | -0.02 | -0.02 | -0.02 | -0.02 | -0.02 | -0.02 | 0.28 | 1.68 | -0.02 | -0.02
8 | COc1cc2ncnc(Nc3ccc(F)c(Cl)c3)c2cc1OCCCN1CCOCC1 [Gefitinib] (top concentration 10000 nM) | -0.34 | -3.04 | 3.96 | 1.16 | 0.96 | 1.66 | 0.36 | 1.86 | 3.66 | 0.66 | -1.84 | 0.56 | 1.96 | 2.26 | 3.36 | -2.94 | 3.36 | 0.16 | 1.56 | -3.04
9 | CCC1=C[C@@H]2CN(C1)Cc1c([nH]c3ccccc13)[C@@](C(=O)OC)(c1cc3c(cc1OC)N(C)[C@H]1[C@@](O)(C(=O)OC)[C@H](OC(C)=O)[C@]4(CC)C=CCN5CC[C@]31[C@@H]54)C2 [Vinorelbine] (top concentration 10000 nM) | 20.6 | 18.3 | 21 | 23.4 | 5.98 | 25.1 | 25.6 | 19.3 | 23.6 | 24.1 | -8.32 | 17.8 | 22.9 | 25 | 24.7 | 11 | 17.8 | 24.2 | 27.2 | 23.3
10 | O=S(=O)(c1cccc2c(O)nccc12)N1CCCNCC1 [Hydroxyfasudil] (top concentration 19000 nM) | -0.72 | -0.92 | -0.72 | -0.92 | -0.92 | -0.72 | -0.22 | 5.88 | -0.92 | 0.08 | -0.92 | -0.32 | -0.92 | 1.18 | -0.02 | 3.88 | 0.48 | -0.12 | -0.52 | 3.98
11 | CCOc1ccn(-c2ccc(F)cc2)c(=O)c1C(=O)Nc1ccc(Oc2ccnc(N)c2Cl)c(F)c1 (top concentration 2500 nM) | 0.1 | 1 | 0.4 | 0 | 0 | 1 | 0 | 0 | 8 | 4.9 | 0 | 0.6 | 0 | 0.4 | 0 | 0 | 2.2 | 0 | 3.5 | 0
12 | CONC(=O)c1ccccc1Nc1cc(Nc2cc(C)nn2C(C)C)ncc1Cl (top concentration 1000 nM) | -0.94 | -0.94 | -0.94 | 3.36 | 1.66 | -0.94 | -0.94 | -0.94 | 0.86 | -0.94 | 0.36 | -0.94 | -0.94 | -0.94 | -0.94 | -0.94 | -0.94 | -0.94 | -0.94 | 1.16
13 | CC1(C)CCC(CN2CCN(c3ccc(C(=O)NS(=O)(=O)c4ccc(NCC5CCOCC5)c([N+](=O)[O-])c4)c(Oc4cnc5[nH]ccc5c4)c3)CC2)=C(c2ccc(Cl)cc2)C1 [Venetoclax] (top concentration 1000 nM) | 8.88e-16 | 22.6 | -4.4 | 31.8 | 31.2 | -1.3 | 2.2 | 28.7 | 16.5 | 21.1 | -4.4 | -1.8 | 8 | 10.1 | 6 | 31.5 | 9.5 | 25.4 | 34.5 | 29
14 | CNC(=O)c1ccc(C)c(-n2c(C)cc(OCc3ccc(F)cc3F)c(Br)c2=O)c1 (top concentration 1000 nM) | 0 | 0 | 0 | 0 | 0 | 7.4 | 0 | 4.9 | 0 | 1.9 | 0 | 0 | 0 | 2 | 0 | 0 | 0 | 2.3 | 0 | 0
15 | CC[C@@H]1C(=O)OC[C@@H]1Cc1cncn1C [Pilocarpine] (top concentration 40000 nM) | -1.26 | -1.56 | -1.56 | -1.56 | -1.56 | -1.56 | -1.56 | 4.44 | -0.76 | -1.56 | -0.36 | -1.56 | -0.36 | -1.56 | 1.94 | -1.56 | -1.56 | -1.56 | -1.56 | -1.56
16 | COc1cc([C@@H]2c3cc4c(cc3[C@@H](O[C@@H]3O[C@@H]5CO[C@@H](C)O[C@H]5[C@H](O)[C@H]3O)[C@H]3COC(=O)[C@H]23)OCO4)cc(OC)c1O [Etoposide] (top concentration 10000 nM) | 23.5 | 2.64 | 17.4 | 14.8 | 6.74 | 25.1 | 29.8 | 13.2 | 14.3 | 15.5 | -6.26 | 20.2 | 21.5 | 20.6 | 28.9 | 19.7 | 7.24 | 16.3 | 26.8 | 21.3
17 | C[C@]1(O)C[C@@H](c2nc(-c3ccc4ccc(-c5ccccc5)nc4c3)c3c(N)nccn32)C1 [Linsitinib] (top concentration 10000 nM) | -2.58 | -3.18 | -2.08 | 0.92 | 3.12 | 0.72 | -3.18 | 2.32 | 2.22 | 0.62 | -3.18 | -3.18 | -3.18 | -2.68 | -3.18 | -3.18 | -3.18 | -2.98 | -3.18 | 1.72
18 | O=C(Nc1cc(Cl)cc2c1[nH]c1cnccc12)c1cccnc1 [PS-1145] (top concentration 25000 nM) | -0.46 | -0.46 | -0.46 | -0.46 | -0.46 | 3.04 | -0.46 | 6.74 | -0.46 | 0.04 | -0.46 | -0.46 | -0.46 | 0.44 | -0.16 | -0.46 | 0.34 | 0.44 | -0.46 | -0.46
